Assay [1] addresses HRAS (Homo sapiens, UniProt P01112). In words: SOS-catalyzed nucleotide exchange assay (Procedure A, TR-FRET). In kind it is biochemical. The note with it: 60 min preincubation, SOS + GTP, read-out: HRAS GNE IC50. The essentials: (§1)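 Biotinylated WT-sequence HRAS or NRAS (1.25 nM final) loaded with Bodipy-GDP plus Tb-streptavidin, preincubated 60 min with compound (10-point, 3-fold). Exchange started with human SOS (40 nM) and 3 mM GTP, 60 min at room temperature, pH 7.5 Mg buffer. TR-FRET 520/495 ratio normalised to DMSO and saturating inhibitor, four-parameter fit.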
(Time-resolved FRET reads energy transfer from a long-lived donor to a nearby acceptor.)

In assay [2] the target is NRAS (Homo sapiens, UniProt P01111). Described as above. The note with it: 60 min preincubation, SOS + GTP, read-out: NRAS GNE IC50. Type of assay: biochemical. The essentials: as §1
Sequence of NRAS (P01111 with tags, fused parts or gaps): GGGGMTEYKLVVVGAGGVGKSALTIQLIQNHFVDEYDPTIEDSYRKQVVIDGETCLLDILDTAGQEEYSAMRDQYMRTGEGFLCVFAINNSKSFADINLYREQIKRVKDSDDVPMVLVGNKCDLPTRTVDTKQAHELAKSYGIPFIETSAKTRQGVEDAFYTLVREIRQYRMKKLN
For assay [3], the system named is SW620 cells (homozygous KRAS-G12V activating mutation). In words: Cellular phospho-ERK assay in G12V cell line. In kind it is cell-based. The note with it: Homo sapiens, SW-620, 2 hours compound incubation, ratio of p-ERK vs. total ERK, read-out: SW620 pERK IC50. The method, then: Procedure for Cellular Phospho-ERK Assay in G12D and G12V Cell Lines
PANC08.13 cells (ATCC® CRL-2551™), containing homozygous KRAS-G12D activating mutation, were cultured in growth medium made of RPMI1640-GlutaMAX™—I (ThermoFisher Scientific 61870) containing 15% heat inactivated fetal bovine serum (ThermoFisher Scientific 10091148)). SW620 cells (ATCC® […]), containing homozygous KRAS-G12V activating mutation, were cultured in growth medium that contains RPMI 1640-GlutaMAX™—I (ThermoFisher Scientific 61870) containing 10% heat inactivated fetal bovine serum (ThermoFisher Scientific 10091148).
Cells for the assay were harvested in growth medium after TrypLE (ThermoFisher scientific 12604021) digestion and were seeded in a 384-well collagen coated cell culture plate (Corning 356702) at a density of 10,000-15,000 cells/20 uL/well, and incubated at 37° C., 5% CO2 overnight. The compound (with 10 mM stock concentration) dose-response titrations were prepared [30 μM final ERK detection assay concentration and 1:3 dilutions, 10-point dose response] and appropriate amounts (270 nL) of test compounds were dispensed in a 384-well intermediate plate using an Echo 550 liquid handler. 30 uL/well of RPMI medium 1640-GlutaMAX™—I was added to the intermediate plate and the contents of the intermediate plate (10 uL/well) were then transferred to the 384-well collagen coated cell culture plate, which was incubated at 37° C., 5% CO2 for 2 hours. After removal of medium from the collagen coated cell culture plate, cells were lysed in lysis buffer from Alpha SureFire® Ultra™ Multiplex p-ERK and total ERK assay kit (PerkinElmer MPSU-PTERK) containing Halt™ Protease and Phosphatase inhibitor cocktail (ThermoFisher Scientific 78446) at room temperature with constant shaking at 300 rpm for 30 minutes. The cell lysates were then transferred to an OptiPlate-384 plate (PerkinElmer 6005620), and the phosphorylation of ERK (p-ERK) and total ERK levels were detected by Alpha SureFire® Ultra™ Multiplex p-EEK kit and total ERK assay kit (PerkinElmer MPSU-PTERK) following the manufacturer's protocol. Assay plates were read on a EnVision Multimode Plate Reader (PerkinElmer), and the ratio of p-ERK vs. total ERK in each well was used as the final readout. Dose response curves were analyzed using a 4-parameter logistic model to calculate IC50 values using Spotfire software.

The test system of assay [4] is PANC08.13 cells (homozygous KRAS-G12D activating mutation). The assay is described as follows: Cellular phospho-ERK assay in G12D cell line. To be noted: Homo sapiens, PANC-08-13, 2 hours compound incubation, ratio of p-ERK vs. total ERK, read-out: PANC 0813 pERK IC50. Type of assay: cell-based. The essentials: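 Cells (10,000-15,000/well) were seeded overnight, then treated for 2 h at 37 °C with a 10-point 1:3 titration from 30 μM final. Lysates were assayed by AlphaLISA SureFire Ultra multiplex, with the p-ERK/total-ERK ratio as read-out; IC50 came from a 4-parameter logistic fit.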

The target of assay [5] is T1, KRAS-G12D (Homo sapiens, UniProt P01116, G12D).
T1 construct: N-terminal biotin-acceptor peptide […]
T1 sequence (P01116 with tags, fused parts or gaps isoform P01116-2 G12D): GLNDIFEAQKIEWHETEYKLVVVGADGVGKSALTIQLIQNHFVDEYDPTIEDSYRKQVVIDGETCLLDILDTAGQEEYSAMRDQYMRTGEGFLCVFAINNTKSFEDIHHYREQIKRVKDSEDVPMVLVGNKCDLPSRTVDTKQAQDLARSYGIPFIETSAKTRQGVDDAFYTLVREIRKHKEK
In words: SOS-catalyzed nucleotide exchange assay (Procedure A, TR-FRET). Type of assay: biochemical. The note with it: 60 min preincubation, SOS + GTP, read-out: KRAS G12D GNE IC50. The essentials:
(§2)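 Preformed biotinylated RAS–Bodipy-GDP/Tb-streptavidin complex preincubated with compound 60 min at room temperature, then SOS plus GTP (3 mM final) added. Exchange times: G13D 30 min, G12C/D 60 min, G12V 90 min. Final RAS/SOS: G12C 3 nM/40 nM, G12D 1 nM/40 nM, G12V 1.25 nM/160 nM, G13D 1.25 nM/0 nM. TR-FRET 520/495 ratio, four-parameter fit.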

Assay [6] has as its target T2, KRAS-G13D (Homo sapiens, UniProt P01116, G13D).
T2 construct: N-terminal biotin-acceptor peptide […]
The assay is described as above. In kind it is biochemical. To be noted: 60 min preincubation, GTP, read-out: KRAS G13D GNE IC50. The method in brief: as §2

The target of assay [7] is T3, KRAS-G12C (C51S/C80L/C118S) (Homo sapiens, UniProt P01116, C118S/C51S/C80L/G12C).
T3 construct: N-terminal biotin-acceptor peptide […]
T3 sequence (P01116 with tags, fused parts or gaps isoform P01116-2 G12C/C51S/C80L/C118S): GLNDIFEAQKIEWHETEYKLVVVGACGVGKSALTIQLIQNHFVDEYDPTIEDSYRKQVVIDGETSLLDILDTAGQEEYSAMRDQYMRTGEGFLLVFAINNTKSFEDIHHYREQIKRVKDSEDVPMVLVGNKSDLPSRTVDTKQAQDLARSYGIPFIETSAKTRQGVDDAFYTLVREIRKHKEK
The assay is described as above. The note with it: 60 min preincubation, SOS + GTP, read-out: KRAS G12C GNE IC50. In kind it is biochemical. The essentials:
as §2

In assay [8] the target is T4, KRAS-G12V (Homo sapiens, UniProt P01116, G12V).
T4 construct: N-terminal biotin-acceptor peptide […]
T4 sequence (P01116 with tags, fused parts or gaps isoform P01116-2 G12V): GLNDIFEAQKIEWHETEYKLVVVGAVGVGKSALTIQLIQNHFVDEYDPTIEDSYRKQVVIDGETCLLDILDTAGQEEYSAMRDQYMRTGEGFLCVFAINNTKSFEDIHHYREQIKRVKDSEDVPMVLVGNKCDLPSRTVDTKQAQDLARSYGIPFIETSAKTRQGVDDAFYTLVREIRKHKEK
Described as above. In kind it is biochemical. To be noted: 60 min preincubation, SOS + GTP, read-out: KRAS G12V GNE IC50. The method in brief: as §2

Usually IC50 stands for the concentration that gives 50% inhibition.

T2 sequence (P01116 with tags, fused parts or gaps isoform P01116-2 G13D): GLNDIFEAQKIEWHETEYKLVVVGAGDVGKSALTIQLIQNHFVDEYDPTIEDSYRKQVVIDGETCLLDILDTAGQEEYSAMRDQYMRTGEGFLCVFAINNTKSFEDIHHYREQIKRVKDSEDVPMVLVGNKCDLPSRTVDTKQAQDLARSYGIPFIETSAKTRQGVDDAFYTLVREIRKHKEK
Sequence of HRAS (P01112 with tags, fused parts or gaps): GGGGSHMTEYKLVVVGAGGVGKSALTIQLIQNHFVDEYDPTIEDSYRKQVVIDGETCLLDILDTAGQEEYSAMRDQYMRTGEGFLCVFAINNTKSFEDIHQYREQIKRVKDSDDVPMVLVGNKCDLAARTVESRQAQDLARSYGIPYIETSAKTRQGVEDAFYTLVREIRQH

Turning to `N#Cc1c(N)sc2c(F)ccc(-c3ncc4c(N5CCCOCC5)nc(OC[C@@]56CCCN5C[C@H](F)C6)nc4c3F)c12` [Ex. 20, 2-amino-7-fluoro-4-(8-fluoro-2-(((2R,7aS)-2-fluorotetrahydro-1H-pyrrolizin-7a(5H)-yl)methoxy)-4-(1,4-oxazepan-4-yl)pyrido[4,3-d]pyrimidin-7-yl)benzo[b]thiophene-3-carbonitrile], the IC50 was > 11100 nM in assay [1]; > 11100 nM in assay [2]; 510 nM in assay [3]; 1420 nM in assay [4]; 294 nM in assay [5]; 93.1 nM in assay [6]. Moreover, the IC50 in assay [7] is 75.5 nM; in assay [8], 60 nM.
For the compound `CN(C)C[C@@]1(COc2nc(N3CCCOCC3)c3cc(Cl)c(-c4ccc(F)c5sc(N)c(C#N)c45)c(F)c3n2)CC1(F)F` [Ex. 24, 2-amino-4-(6-chloro-2-(((R)-1-((dimethylamino)methyl)-2,2-difluorocyclopropyl)methoxy)-8-fluoro-4-(1,4-oxazepan-4-yl)quinazolin-7-yl)-7-fluorobenzo[b]thiophene-3-carbonitrile], the IC50 in assay [1] is > 11100 nM; in assay [2], > 11100 nM; in assay [3] it was 93.1 nM; in assay [4], 233 nM; in assay [5], 51.8 nM; in assay [6], 28.8 nM. Besides, the IC50 was found to be 30.4 nM in assay [7] and 9.52 nM in assay [8].
For the compound `Cc1cc(N)nc(-c2c(Cl)cc3c(N4CCCCOCC4)nc(OC[C@@]45CCCN4C[C@H](F)C5)nc3c2F)c1C(F)(F)F` [Ex. 39, 6-(6-chloro-8-fluoro-2-(((2R,7aS)-2-fluorotetrahydro-1H-pyrrolizin-7a(5H)-yl)methoxy)-4-(1,4-oxazocan-4-yl)quinazolin-7-yl)-4-methyl-5-(trifluoromethyl)pyridin-2-amine], the IC50 is > 11100 nM in assay [1]; > 11100 nM in assay [2]; 422 nM in assay [3]; 1320 nM in assay [4]; 515 nM in assay [5]; 145 nM in assay [6]. In addition, the IC50 turned out to be 63.1 nM in assay [7] and 32.2 nM in assay [8].
With `Cc1cc2[nH]ncc2c(-c2c(F)cc3c(N4CCCOCC4)nc(OC[C@@]45CCCN4C[C@H](F)C5)nc3c2F)c1C(F)(F)F` [Ex. 44, 4-(6,8-difluoro-2-(((2R,7aS)-2-fluorotetrahydro-1H-pyrrolizin-7a(5H)-yl)methoxy)-7-(6-methyl-5-(trifluoromethyl)-1H-indazol-4-yl)quinazolin-4-yl)-1,4-oxazepane], the IC50 is > 11100 nM in assay [1]; > 11100 nM in assay [2]; 901 nM in assay [3]; 1300 nM in assay [4]; 505 nM in assay [5]; 365 nM in assay [6]. The half-inhibitory concentration (IC50) amounted to 96.3 nM in assay [7] and 235 nM in assay [8].
With `CC1COCCCN1c1nc(OC[C@@]23CCCN2C[C@H](F)C3)nc2c(F)c(-c3ccc(F)c4sc(N)c(C#N)c34)c(Cl)cc12` (stereo partly drawn) [compound 5, 2-amino-4-(6-chloro-8-fluoro-2-(((2R,7aS)-2-fluorotetrahydro-1H-pyrrolizin-7a(5H)-yl)methoxy)-4-(3-methyl-1,4-oxazepan-4-yl)quinazolin-7-yl)-7-fluorobenzo[b]thio-phene-3-carbonitrile], the IC50 in assay [1] is > 11100 nM; in assay [2], > 11100 nM; in assay [3], 120 nM; in assay [4], 123 nM; in assay [5], 15.2 nM; in assay [6] it was 13.4 nM. Also, the results for the IC50 in assay [7] and in assay [8] were 18 nM and 6.15 nM, respectively.
For `C[C@@H]1CCOCCN1c1nc(OC[C@@]23CCCN2C[C@H](F)C3)nc2c(F)c(-c3ccc(F)c4sc(N)c(C#N)c34)c(Cl)cc12` [compound 7, 2-amino-4-(6-chloro-8-fluoro-2-(((2R,7aS)-2-fluorotetrahydro-1H-pyrrolizin-7a(5H)-yl)methoxy)-4-((R)-5-methyl-1,4-oxazepan-4-yl)quinazolin-7-yl)-7-fluorobenzo[b]thio-phene-3-carbonitrile], the IC50 in assay [1] is > 11100 nM; in assay [2] it was > 11100 nM; in assay [3], 67.4 nM; in assay [4], 192 nM; in assay [5], 9.18 nM; in assay [6] it was 8.55 nM. In addition, the IC50 in assay [7] turned out to be 13.1 nM; in assay [8], 6 nM.
On to `CC1COCCN(c2nc(OC[C@@]34CCCN3C[C@H](F)C4)nc3c(F)c(-c4ccc(F)c5sc(N)c(C#N)c45)c(Cl)cc23)C1` (stereo partly drawn) [compound 8, 2-amino-4-(6-chloro-8-fluoro-2-(((2R,7aS)-2-fluorotetrahydro-1H-pyrrolizin-7a(5H)-yl)methoxy)-4-(6-methyl-1,4-oxazepan-4-yl)quinazolin-7-yl)-7-fluorobenzo[b]thio-phene-3-carbonitrile], for which the IC50 is > 11100 nM in assay [1]; > 11100 nM in assay [2]; 104 nM in assay [3]; 138 nM in assay [4]; 9.92 nM in assay [5]; 12.8 nM in assay [6]. The values for the IC50 in assay [7] and in assay [8] were 20.8 nM and 7.59 nM, respectively.
Take `CC1CN(c2nc(OC[C@@]34CCCN3C[C@H](F)C4)nc3c(F)c(-c4ccc(F)c5sc(N)c(C#N)c45)c(Cl)cc23)CCCO1` (stereo partly drawn) [compound 9, 2-amino-4-(6-chloro-8-fluoro-2-(((2R,7aS)-2-fluorotetrahydro-1H-pyrrolizin-7a(5H)-yl)methoxy)-4-(2-methyl-1,4-oxazepan-4-yl)quinazolin-7-yl)-7-fluorobenzo[b]thio-phene-3-carbonitrile]: the IC50 in assay [1] is > 11100 nM; in assay [2], > 11100 nM; in assay [3], 101 nM; in assay [4] it was 155 nM; in assay [5], 24.4 nM; in assay [6], 8.74 nM. Further, the results for the IC50 in assay [7] and in assay [8] were 23.1 nM and 6.17 nM, respectively.
For the compound `CC1CCN(c2nc(OC[C@@]34CCCN3C[C@H](F)C4)nc3c(F)c(-c4ccc(F)c5sc(N)c(C#N)c45)c(Cl)cc23)CCO1` (stereo partly drawn) [compound 10, 2-amino-4-(6-chloro-8-fluoro-2-(((2R,7aS)-2-fluorotetrahydro-1H-pyrrolizin-7a(5H)-yl)methoxy)-4-(7-methyl-1,4-oxazepan-4-yl)quinazolin-7-yl)-7-fluorobenzo[b]thio-phene-3-carbonitrile], the IC50 in assay [1] is > 11100 nM; in assay [2] it was > 11100 nM; in assay [3] it was 538 nM; in assay [4], 2600 nM; in assay [5] it was 700 nM; in assay [6] it was 110 nM. Moreover, the IC50 worked out at 47.3 nM in assay [7] and 41.7 nM in assay [8].
